Assay results: US7226783B1, “Vanillin production” (David Michael & Co., Inc., priority 1997, dated 2007)
One block for each molecule: values may come before it.

Assays:
[1] = tested on: alcohol dehydrogenase from Vanilla planifolia embryo culture (vanillyl alcohol dehydrogenase, VAD); test: Substrate specificity of vanillyl alcohol dehydrogenase (VAD); type: biochemical; conditions: for Activity with the compound as substrate, NADH: cofactor NADH; for Activity with the compound as substrate, NADPH: cofactor NADPH
Procedure: We have purified and characterized the activity of VAD that catalyze the reduction of vanillin to vanillyl alcohol. The enzyme was identified as an NADH or NADPH-dependent alcohol dehydrogenase. The purification protocol was as set forth below.
Crude enzyme extract: Tissue was homogenized in 0.05 M actetate-Na buffer pH 4.0 (in proportion, 1 g of the tissue and 5 ml of the buffer) in an ice bath, using Polytrone homogenizer, at 20,000 revolutions of the blade per min. The homogenate was centrifuged at 13000 g for 15 min at 4° C. and the supernatant served as the crude enzyme source.
Ammonium sulfate fractionation and molecular sieving: Crude enzyme extract (100 ml) was supplied with ammonium sulfate in an ice bath up to 60% of saturation (44.4 g of Ammonium sulphate per 100 ml). The precipitate was centrifuged and discarded. The supernatant was supplied with ammonium sulfate up to 90% of saturation (total 64.6 g per 100 ml of crude extract). The precipitate was collected (10 min centrifugation at 10,000 g), dissolved in 7 ml of extraction buffer and subjected to molecular sieving at Sephacryl S-300 High Load Column (LKB Pharmacia) 2.6×60 cm, in 0.1 M pH 4.0 acetate-Na buffer. The flow rate was adjusted to 1 ml/min and 5 ml fractions were collected. The protein elution profile was monitored at 280 nm. Five fractions (of a total of 50) containing dehydrogenase activity (130–155 ml of the column eluate) were collected.
The column was developed with 0.5 M Tris/HCL buffer pH 7.4 in 0.0–1.0 M NaCl gradient (total gradient volume—70 ml) and 2.5 ml fractions were collected. Vanillyl alcohol dehydrogenase was released from the column between 0.3–0.4 M NaCl. Fractions containing VAD activity were dialysed overnight against 0.05 M caetate-Na buffer pH 4.0 and concentrated up to 50 times using Minicon concentrating filters (Amicon). […]

Vanilla embryo culture = test: Feeding vanilla embryo culture with vanillin precursors, HPLC analysis of metabolites; type: cell-based, Vanilla planifolia
Excerpt: We derived a scheme for the vanillin biosynthetic pathway by analysis of metabolites in cultured embryos and by experiments with feeding of precursors and intermediates. This scheme is shown in FIG. 1 and the experiments are described below.
(§1) Embryo cultures of Vanilla planifolia were established as described in Example 1. The procedures used to extract phenolics from the cultured embryo cells and to analyze the extracts by high pressure liquid chromatography (HPLC) were as described generally by Havkin-Frenkel et al., Plant Cell, Tissue and Organ Culture 45: 133–136 (1996).
(§2) In the extraction procedure, 3 ml of 0.05 M sodium acetate buffer, pH 5.5, was added to about 1 gram of fresh culture. Samples were placed in boiling water for three minutes, then chilled. The cells were next homogenized in a Polytron blender for 1 minute at medium speed. A β-glucosidase solution was added to the homogenized cells to give a final concentration of 0.2%. Each sample was then incubated at 37° C. for 5 hr. Next, 17 ml of 95% ethanol was added, after which incubation at 37° C. was continued for an additional 24 hrs. The extract was then filtered and the ethanol evaporated. The filtrate was extracted twice using ethyl acetate, then extracted twice with ethyl acetate acidified to pH 3 with HCl. The extracts were combined and the ethyl acetate evaporated. The residue was dissolved in 1 ml of acidified methanol and filtered with a 0.45 μm syringe filter for HPLC analysis.
Extractions of metabolites from culture medium was similar to the cell extraction protocol. Five ml of spent medium was incubated in a β-glucosidase solution at 37° C. for 24 hrs. The medium was then extracted with ethyl acetate and the organic portions combined and evaporated, as for the cell extracts.
(§3) Metabolite levels were measured with a Hewlett Packard 1090L or a Waters HPLC with a UV detector at 280 nm. The Waters HPLC was also equipped with a diode array detector to confirm the identities of the various intermediates, and the identities of the various intermediates were further confirmed by mass spectrometry. The column was a Supelco C-18 DB column of dimensions 250 mm×4.6 mm and a particle size of 5 μm. The mobile phase contained methanol and water, each of which was acidified with 1.25% acetic acid. The flow rate was 1 ml/min, with a solvent gradient as follows: […]
Results of selected experiments in which precursors or elicitors were added to vanilla cultures are set forth below. These experiments were performed in accordance with the procedures set forth in Examples 1–4.

[2] = tested on: p-hydroxybenzaldehyde synthase; test: Substrate specificity of p-hydroxybenzaldehyde synthase (chain shortening enzyme), crude enzyme; type: biochemical, Vanilla planifolia; conditions: for Result: conversion of the compound as substrate to the expected chain-shortened product: crude enzyme, HPLC detection of product
Procedure: Sterile plant material (2 g) 2–3 weeks after subculture, was homogenized in a cooled Potter glass homogenizer with 4 ml of 0.1 M HEPES buffer, pH 8.0, containing 10 mM DTT. The homogenate was next centrifuged at 4° C. at 15.000× g for 15 min. Resultant supernatant (4 ml) was filtered through Sephadex G-25 column (void volume 3–4 ml.) Equilibrated with Tris/HCL buffer pH7, containing 10 mM DTT. The column was washed with the same buffer and 2 ml fraction following the void volume was collected. This fraction was used as the crude enzyme source.
The p-HO-aldehyde synthase activity was determined in the following mixture:
crude enzyme extract: 10 μl
(substrate=1.8 mM p-coumarate in 0.1 M Tris/HCl, pH 8.0 with 10 mM DTT)
The mixture was incubated for 10–60 min (for longer incubation times, the activity was not proportional with time) at 35° C. and next, the reaction stopped by addition of 200 μl of acidified methanol (10% acetic acid in methanol). The slurry was passed through 0.45 μm filter and the filtrate (50 μl) injected into HPLC Bio-sil 18 HL 90-5 column (Reversed phase, 250 mm×4.6 mm). […] The eluate was monitored at 280 nm and retention time of the reaction product was compared to retention time of the standard compounds (benzaldehyde, p-HO-benzaldehyde, vanillin, protocatechuic aldehyde, p-coumaric acid, caffeic acid, ferulic acid, coniferyl aldehyde). The results were quantified using LKB Bromma 2221 Integrator.
As a potential substrates for chain shortening enzyme the following compounds were tested: […]

[3] = tested on: Vanilla planifolia Embryo Culture; test: Malic acid elicitation of embryo culture, HPLC analysis of intermediary metabolites; type: cell-based
Procedure: as §1, §2, §3
Malic acid in concentrations of 0.1 to 3% was applied as a disodium salt to the growing medium. The culture was maintained for 1 to 15 days, then was extracted as described in Example 2.
Cultures were grown in medium containing 3% malic acid by weight, for 7 days.

[4] = tested on: V. planifolia embryo culture; test: Uptake of exogenously added vanillin and transformation to vanillyl alcohol in embryo culture; type: cell-based, Vanilla planifolia
Excerpt: FIG. 3. Graph showing uptake of exogenously added vanillin and its transformation to vanillyl alcohol by vanillyl alcohol dehydrogenase in V. planifolia embryo culture. V(T)=vanillin in tissue; V(M)=vanillin in medium; VAL(T)=vanillyl alcohol in tissue; VAL(M)=vanillyl alcohol in medium.
Similarly, vanilla embryo culture that can be elicited by various elicitors to produce vanillin accumulates vanillyl alcohol as a final product. It is important to state at this stage that all the intermediates in the pathway are found mainly as glucosides.

[5] = 3% malic acid by weight in medium, 7 days

Structure (SMILES): CCOc1cc(C=O)ccc1O [4-hydroxy-3-ethoxybenzaldehyde]
Activity with the compound as substrate, NADH [1]: 0.42 nmoles · gfwt^−1 · min^−1

Activity with the compound as substrate, NADH [1]: 0.00 nmoles · gfwt^−1 · min^−1
Structure (SMILES): CCOc1cc(C=O)ccc1OC [4-methoxy-3-ethoxybenzaldehyde]

Structure (SMILES): COc1ccc(C=O)cc1O [4methoxy-3-hydroxybenzaldehyde]
Activity with the compound as substrate, NADH [1]: 0.00 nmoles · gfwt^−1 · min^−1
Activity with the compound as substrate, NADPH [1]: 0.00 nmoles · gfwt^−1 · min^−1

Structure (SMILES): CC=O [Acetaldehyde]
substrate preference of VAD [1]: lower
Activity with the compound as substrate, NADH [1]: 0.26 nmoles · gfwt^−1 · min^−1

Activity with the compound as substrate, NADH [1]: 0.32 nmoles · gfwt^−1 · min^−1
Activity with the compound as substrate, NADPH [1]: 0.14 nmoles · gfwt^−1 · min^−1
Structure (SMILES): O=Cc1ccc(O)cc1 [BA, p-hydroxybenzaldehyde]
CA (p-coumaric acid) content of culture (Vanilla embryo culture; precursor fed at 1 mM): 125 mg/100 g dry wt.
HBA (p-hydroxybenzyl alcohol) content of culture (Vanilla embryo culture; precursor fed at 1 mM): 10305 mg/100 g dry wt.
PRO-ALD (3,4-dihydroxybenzaldehyde) content of culture (Vanilla embryo culture; precursor fed at 1 mM): 5.8 mg/100 g dry wt.
VN (vanillin) content of culture (Vanilla embryo culture; precursor fed at 1 mM): 0.015 mg/100 g dry wt.
VN ALC (vanillyl alcohol) content of culture (Vanilla embryo culture; precursor fed at 1 mM): 12.3 mg/100 g dry wt.

Structure (SMILES): O=Cc1ccccc1 [Benzaldehyde]
Activity with the compound as substrate, NADH [1]: 0.33 nmoles · gfwt^−1 · min^−1
Activity with the compound as substrate, NADPH [1]: 0.18 nmoles · gfwt^−1 · min^−1

specificity of the tested enzyme towards substrate [2]: very high specificity
Result: conversion of the compound as substrate to the expected chain-shortened product [2]: positive
Structure (SMILES): O=C(O)/C=C/c1ccc(O)cc1 [CA, p-coumaric acid]
CA (p-coumaric acid) content of culture (Vanilla embryo culture; precursor fed at 1 mM): 220 mg/100 g dry wt.
HBA (p-hydroxybenzyl alcohol) content of culture (Vanilla embryo culture; precursor fed at 1 mM): 13000 mg/100 g dry wt.
PRO-ALD (3,4-dihydroxybenzaldehyde) content of culture (Vanilla embryo culture; precursor fed at 1 mM): 10 mg/100 g dry wt.
VN (vanillin) content of culture (Vanilla embryo culture; precursor fed at 1 mM): 0.01 mg/100 g dry wt.
VN ALC (vanillyl alcohol) content of culture (Vanilla embryo culture; precursor fed at 1 mM): 10 mg/100 g dry wt.

Result: conversion of the compound as substrate to the expected chain-shortened product [2]: negative
Structure (SMILES): O=C(O)/C=C/c1ccc(O)c(O)c1 [CAF, caffeic acid]
CA (p-coumaric acid) content of culture (Vanilla embryo culture; precursor fed at 2 mM): 189 mg/100 g dry wt.
HBA (p-hydroxybenzyl alcohol) content of culture (Vanilla embryo culture; precursor fed at 2 mM): 11350 mg/100 g dry wt.
PRO-ALD (3,4-dihydroxybenzaldehyde) content of culture (Vanilla embryo culture; precursor fed at 2 mM): 21 mg/100 g dry wt.
VN (vanillin) content of culture (Vanilla embryo culture; precursor fed at 2 mM): 0.5 mg/100 g dry wt.
VN ALC (vanillyl alcohol) content of culture (Vanilla embryo culture; precursor fed at 2 mM): 32 mg/100 g dry wt.

Structure (SMILES): O=CC=Cc1ccccc1 [Cinnamylaldehyde]
Activity with the compound as substrate, NADH [1]: 0.00 nmoles · gfwt^−1 · min^−1

Result: conversion of the compound as substrate to the expected chain-shortened product [2]: negative
Structure (SMILES): COc1cc(/C=C/C(=O)O)ccc1O [FA, ferulic acid]
CA (p-coumaric acid) content of culture (Vanilla embryo culture; precursor fed at 25 mM): 136 mg/100 g dry wt.
HBA (p-hydroxybenzyl alcohol) content of culture (Vanilla embryo culture; precursor fed at 25 mM): 11007 mg/100 g dry wt.
PRO-ALD (3,4-dihydroxybenzaldehyde) content of culture (Vanilla embryo culture; precursor fed at 25 mM): 4.8 mg/100 g dry wt.
VN (vanillin) content of culture (Vanilla embryo culture; precursor fed at 25 mM): 11.8 mg/100 g dry wt.
VN ALC (vanillyl alcohol) content of culture (Vanilla embryo culture; precursor fed at 25 mM): 23.8 mg/100 g dry wt.

Structure (SMILES): OCc1ccc(O)cc1 [HBA, p-hydroxybenzyl alcohol]
CA (p-coumaric acid) content of culture (Vanilla embryo culture; precursor fed at 1 mM): 158 mg/100 g dry wt.
HBA (p-hydroxybenzyl alcohol) content of culture (Vanilla embryo culture; precursor fed at 1 mM): 13100 mg/100 g dry wt.
PRO-ALD (3,4-dihydroxybenzaldehyde) content of culture (Vanilla embryo culture; precursor fed at 1 mM): 4.6 mg/100 g dry wt.
VN (vanillin) content of culture (Vanilla embryo culture; precursor fed at 1 mM): 0.001 mg/100 g dry wt.
VN ALC (vanillyl alcohol) content of culture (Vanilla embryo culture; precursor fed at 1 mM): 9.6 mg/100 g dry wt.
fate of HBA in tissue homogenates (Vanilla embryo culture; tissue homogenates): rapidly metabolized to dihydroxybenzyl aldehyde

Structure (SMILES): O=C(O)CC(O)C(=O)O (stereo not drawn) [Malic Acid, malic acid]
BA content of culture [3, 5]: 0.02% of Dry Weight
HBA content of culture [3, 5]: 3.60% of Dry Weight
HMBA (vanillyl alcohol) content of culture [3, 5]: 0.700% of Dry Weight
HY content of culture [3, 5]: 0.050% of Dry Weight
PC content of culture [3, 5]: 0.20% of Dry Weight
PROALD content of culture [3, 5]: 0.025% of Dry Weight
VN (vanillin) content of culture [3, 5]: 0.072% of Dry Weight
stimulation of vanillin production relative to standard conditions ([3]; 3% malic acid by weight, 7 days, embryo cultures): more than tenfold
vanillin yield ([3]; 3% malic acid, embryo cultures, increase from 5): 72 mg/100 g tissue
effect on production/accumulation of vanillin and vanillyl alcohol ([3]; malic acid 0.1 to 3% as disodium salt, 1 to 15 days): induced the production/accumulation of vanillin and vanillyl alcohol

Structure (SMILES): COc1cc(CO)ccc1O [VN. ALC., vanillyl alcohol]
CA (p-coumaric acid) content of culture (Vanilla embryo culture; precursor fed at 2 mM): 206 mg/100 g dry wt.
HBA (p-hydroxybenzyl alcohol) content of culture (Vanilla embryo culture; precursor fed at 2 mM): 10350 mg/100 g dry wt.
PRO-ALD (3,4-dihydroxybenzaldehyde) content of culture (Vanilla embryo culture; precursor fed at 2 mM): 1.1 mg/100 g dry wt.
VN (vanillin) content of culture (Vanilla embryo culture; precursor fed at 2 mM): 8.5 mg/100 g dry wt.
VN ALC (vanillyl alcohol) content of culture (Vanilla embryo culture; precursor fed at 2 mM): 882 mg/100 g dry wt.

substrate preference of VAD [1]: most preferred substrates
Activity with the compound as substrate, NADH [1]: 1.26 nmoles · gfwt^−1 · min^−1
Activity with the compound as substrate, NADPH [1]: 0.97 nmoles · gfwt^−1 · min^−1
Structure (SMILES): COc1cc(C=O)ccc1O [Vn, vanillin]
fate of compound applied to the growing medium of embryo culture [4]: rapid uptake and reduction of the applied compound to vanillyl alcohol

Structure (SMILES): COc1cc(/C=C/C=O)ccc1O [coniferyl aldehyde, 4-HO-3-metoxycinnamyl aldehyde]
Result: conversion of the compound as substrate to the expected chain-shortened product [2]: negative
Activity with the compound as substrate, NADH [1]: 0.00 nmoles · gfwt^−1 · min^−1

Result: conversion of the compound as substrate to the expected chain-shortened product [2]: negative
Structure (SMILES): O=C(O)/C=C/c1ccccc1 [t-cinnamic acid]
